Where no end group is shown, it is not given here.
Assays:
activated macrophages = experiment: Induction of activated macrophages in mice (peritoneal exsudate); assay type: in vivo; conditions: for activity in increasing activated macrophages relative to HEP1: 1.0 microgram peptide/mouse; for Activated macrophages as a percent of total number of cells: 1.0 microgram peptide/mouse injected abdominally, after 24 hours, saline 1.9
Method: Groups of three mice (CDAxC57B1)F1 weighing 22-24 g were injected abdominally with each peptide solution of 1.0 microgram of peptide dissolved in 0.5 ml of physiological saline. After 24 hours the animals were killed using neck vertebrae dislocation and 5 ml of Hanks solution was injected into the abdomen. The abdomen was massaged for 30 seconds and then the peritoneal liquid was collected. The collected liquid was filtered using a nylon filter into siliconised tubes containing 1.5 mg/ml EDTA. The number of nucleus containing cells in […] of filtrate were then assessed under microscopic examination using a Nihon hemocytometer. The cells were pelleted by centrifugation for 5 minutes at 800 g, the pellet was resuspended in fetal calf serum, the cell suspension was dropped on to a glass microscope slide and dried then fixed in methanol and stained with Romanovski's colouring agent. Morphological analysis of the cells of the peritoneal exsudate were performed using an Opton optical microscope at 1600 magnifications. The number of lymphocytes, resting macrophages, activated macrophages, granulocytes and other cell types were assessed.

[1] = system: human Peripheral Blood Mononuclear Cells; experiment: In vitro activation of human PBMC, tritiated thymidine incorporation; assay type: cell-based; conditions: three days, Control 370
Method: Peripheral Blood Mononuclear Cells (PBMC) were separated from the peripheral blood of a […] donor using the standard method of fractionation in a ficoll gradient. The PBMC were suspended in culture medium containing RPMI1640 medium plus 10% fetal calf serum, 1 mM L-glutamin and antibiotics (BM). The cell suspension was placed in wells of a 96 hole microwell plate for cell cultivation, (100 microliters of suspension containing 100,000 cells per well). […] The negative control well contained BM but no peptide. The plate was incubated at 37° C. for three days then radioactive ^3H thymidine was added to a final concentration of 1 microcurie per ml. The incorporation of ^3H thymidine into the DNA of the cells was measured using a betacounter using standard procedures. The experiment was repeated twice and the results expressed as an average of the two experiments in radioactive counts per minute.

[2] = Animal toxicology and pre-clinical testing of HEP1; conditions: rat and rabbit

TEKKRRETVER (Hepreceptor peptide) [Rupe111]
activity in increasing activated macrophages relative to HEP1 (activated macrophages): significantly more active than HEP1 | Activated macrophages as a percent of total number of cells (activated macrophages): 4.3% | incorporation of 3H thymidine ([1]; Peptide 0.0001 micro g/ml): 483 radioactive counts per minute | incorporation of 3H thymidine ([1]; Peptide 0.0003 micro g/ml): 483 radioactive counts per minute | incorporation of 3H thymidine ([1]; Peptide 0.001 micro g/ml): 710 radioactive counts per minute | incorporation of 3H thymidine ([1]; Peptide 0.003 micro g/ml): 665 radioactive counts per minute | incorporation of 3H thymidine ([1]; Peptide 0.01 micro g/ml): 537 radioactive counts per minute | incorporation of 3H thymidine ([1]; Peptide 0.03 micro g/ml): 642 radioactive counts per minute | incorporation of 3H thymidine ([1]; Peptide 0.1 micro g/ml): 633 radioactive counts per minute | incorporation of 3H thymidine ([1]; Peptide 0.3 micro g/ml): 668 radioactive counts per minute | incorporation of 3H thymidine ([1]; Peptide 1 micro g/ml): 529 radioactive counts per minute | incorporation of 3H thymidine ([1]; Peptide 3 micro g/ml): 486 radioactive counts per minute | incorporation of 3H thymidine ([1]; Peptide 10 micro g/ml): 470 radioactive counts per minute

TEKKRRETVEREKE [HEP1, TEKKRRETVEREKE]
Chronic toxicity [2]: negative | Effect of 1000× therapeutic dose [2]: negative | Embryotoxicity [2]: negative | Influence on CNS and HVS [2]: negative | Local Irritation [2]: negative | Mutagenic effects [2]: negative | Sub-acute toxicity [2]: negative | Preliminary evaluation of toxicity ([2]; pharmaceutical grade HEP1): negative

KRRETVER (Hepreceptor peptide) [Rupe411]
activity in increasing activated macrophages relative to HEP1 (activated macrophages): significantly more active than HEP1 | Activated macrophages as a percent of total number of cells (activated macrophages): 5.5% | incorporation of 3H thymidine ([1]; Peptide 0.0001 micro g/ml): 385 radioactive counts per minute | incorporation of 3H thymidine ([1]; Peptide 0.0003 micro g/ml): 510 radioactive counts per minute | incorporation of 3H thymidine ([1]; Peptide 0.001 micro g/ml): 702 radioactive counts per minute | incorporation of 3H thymidine ([1]; Peptide 0.003 micro g/ml): 598 radioactive counts per minute | incorporation of 3H thymidine ([1]; Peptide 0.01 micro g/ml): 532 radioactive counts per minute | incorporation of 3H thymidine ([1]; Peptide 0.03 micro g/ml): 500 radioactive counts per minute | incorporation of 3H thymidine ([1]; Peptide 0.1 micro g/ml): 499 radioactive counts per minute | incorporation of 3H thymidine ([1]; Peptide 0.3 micro g/ml): 486 radioactive counts per minute | incorporation of 3H thymidine ([1]; Peptide 1 micro g/ml): 468 radioactive counts per minute | incorporation of 3H thymidine ([1]; Peptide 3 micro g/ml): 420 radioactive counts per minute | incorporation of 3H thymidine ([1]; Peptide 10 micro g/ml): 390 radioactive counts per minute

— US6849596B1, “Regulatory/unfolding peptides of ezrin” (priority 1999, dated 2005)
